Structures can show the parent of a compound that is named as a salt. Where two headings read alike, the source gives them in different places.
Target: T1, Human MOR (Homo sapiens, UniProt P35372)
T1 construct: expressed in transfected cells; host or cells: HEK-293T
Assay: cell-based
Excerpt: Transfection. Human or mouse MOR cDNA was transfected alongside GαoB with RLuc8 inserted at position 91 (GαoB-RLuc8), Gβ1 (β1), and Gγ2 fused to the full-length mVenus at its N terminus (mVenus-γ2) into HEK-293T cells (5×10^6 cells/plate) in 10-cm dishes using PEI (Polysciences Inc.; Warrington, Pa.) in a 1:1 ratio diluted in Opti-MEM (Life Technologies Corp.; Grand Island, N.Y.) to assay for G protein activation as described previously (Rives, M.-L. et al. J. Biol. Chem. 2012, 287, 27050-4; Negri, A.; Rives, M.-L.; Caspers, M. J. et al. J. Chem. Inf. Model. 2013, 53, 521-526). Cells were maintained in the Dulbecco's Modified Eagle Medium (high glucose #11965; Life Technologies) supplemented with 10% FBS (Premium Select, Atlanta Biologicals; Atlanta, Ga.) and 100 U/mL penicillin and 100 μg/mL streptomycin (#15140, Life Technologies). After 24 hours the media was changed, and the experiment was performed 24 hours later (48 hours after transfection).
BRET. Transfected cells were dissociated and resuspended in phosphate-buffered saline (PBS). Approximately 200,000 cells/well were added to a black-framed, white well 96-well plate (#60050; Perkin Elmer; Waltham, Mass.). The microplate was centrifuged and the cells were resuspended in PBS. Then 5 μM of the luciferase substrate coelenterazine H was added to each well for 5 minutes. Following coelenterazine H addition, ligands were added and the BRET signal was measured at 5 minutes on a PHERAstar FS plate reader. Quantification of the BRET signal required calculating the ratio of the light emitted by the energy acceptor, mVenus (510-540 nm), over the light emitted by the energy donor, RLuc8 (485 nm). […] Dose response curves were fit using three-parameter logistics equation in GraphPad Prism 6.

[1] = BRET G protein activation, HEK-293T, mean ± SEM of independent trials, read-out: EC50 Human MOR

T1 sequence (P35372 whole entry): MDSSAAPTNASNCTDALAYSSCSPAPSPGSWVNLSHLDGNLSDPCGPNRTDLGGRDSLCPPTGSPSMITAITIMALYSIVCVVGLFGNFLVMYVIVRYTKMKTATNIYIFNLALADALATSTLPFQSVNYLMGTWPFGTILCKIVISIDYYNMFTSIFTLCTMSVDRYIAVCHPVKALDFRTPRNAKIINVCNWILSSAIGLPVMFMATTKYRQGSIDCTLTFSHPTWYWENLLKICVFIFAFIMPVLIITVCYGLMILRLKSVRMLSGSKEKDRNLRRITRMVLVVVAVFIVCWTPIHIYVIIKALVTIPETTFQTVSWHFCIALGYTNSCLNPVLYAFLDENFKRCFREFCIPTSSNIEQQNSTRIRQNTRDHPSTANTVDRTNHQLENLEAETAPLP

| Molecule | EC50 | EC50 [1] |
| --- | --- | --- |
| COC(C)CCNC1c2ccccc2N(C)S(=O)(=O)c2cc(Cl)ccc21 (mixture of isomers) [compound 67, 3-Chloro-11-((3-methoxybutyl)amino)-6-methyl-6,11-dihydrodibenzo [c,f][1,2]thiazepine 5,5-dioxide] | < 10 µM |  |
| COCCNC1c2ccccc2N(C)S(=O)(=O)c2cc(Cl)ccc21 (stereo not shown) [compound 42, 3-Chloro-11-((2-methoxyethyl)amino)-6-methyl-6,11-dihydrodibenzo [c,f][1,2]thiazepine 5,5-dioxide] | < 10 µM |  |
| CCOC(=O)CCCCCCNC1c2ccc(Br)cc2S(=O)(=O)N(C)c2ccsc21 (stereo not shown) [compound 74, Ethyl 7-((7-bromo-4-methyl-5,5-dioxido-4,10-dihydrobenzo[f]thieno[3,2-c][1,2]thiazepin-10-yl)amino)heptanoate] | < 10 µM |  |
| COCCOCCNC1c2ccccc2N(C)S(=O)(=O)c2cc(Cl)ccc21 (stereo not shown) [compound 36, 3-Chloro-11-((2-(2-methoxyethoxy)ethyl)amino)-6-methyl-6,11-dihydrodibenzo[c,f][1,2]thiazepine 5,5-dioxide] | < 10 µM |  |
| CCOCCCNC1c2ccccc2N(C)S(=O)(=O)c2cc(Br)ccc21 (stereo not shown) [compound 71, 3-Bromo-11-((3-ethoxypropyl)amino)-6-methyl-6,11-dihydrodibenzo [c,f][1,2]thiazepine 5,5-dioxide] |  | 0.222 ± 0.078 µM |
| COCCCNC1c2ccccc2S(=O)(=O)N(C)c2ccsc21 (stereo not shown) [compound 7, 10-((3-Methoxypropyl)amino)-4-methyl-4,10-dihydrobenzo[f]thieno[3,2-c][1,2]thiazepine 5,5-dioxide] | < 10 µM |  |
| CN1c2ccccc2C(NCCCCCCC(=O)O)c2ccc(Br)cc2S1(=O)=O (stereo not shown) [compound 82, 7-((3-Bromo-6-methyl-5,5-dioxido-6,11-dihydrodibenzo[c,f][1,2]thiazepin-11-yl)amino)heptanoic acid hydrochloride salt] | 0.122 µM |  |
| CCOC(=O)CCCCCCNC1c2ccccc2S(=O)(=O)N(C)c2c(OC)cccc21 (stereo not shown) [compound 51, Ethyl 7-((7-methoxy-6-methyl-5,5-dioxido-6,11-dihydrodibenzo[c,f][1,2]thiazepin-11-yl)amino)heptanoate] | < 10 µM |  |
| COCCCNC1c2ccccc2N(C)S(=O)(=O)c2cc(Br)ccc21 (stereo not shown) [compound 53, 3-Bromo-11-((3-methoxypropyl)amino)-6-methyl-6,11-dihydrodibenzo[c,f] [1,2]thiazepine 5,5-dioxide] | 0.0741 ± 0.0179 µM |  |
| CN1CCCC1CCNC1c2ccccc2N(C)S(=O)(=O)c2cc(Cl)ccc21 (stereo not shown) [compound 47] | < 20 µM |  |
| CN1c2ccccc2C(NCCCC2OCCCO2)c2ccc(Cl)cc2S1(=O)=O (stereo not shown) [compound 31, 11-((3-(1,3-Dioxan-2-yl)propyl)amino)-3-chloro-6-methyl-6,11-dihydrodibenzo[c,f][1,2]thiazepine 5,5-dioxide] | < 10 µM |  |
| CN1c2ccccc2C(NCCCCCCC2=NCCO2)c2ccc(Cl)cc2S1(=O)=O (stereo not shown) [compound 58, 3-Chloro-11-((6-(4,5-dihydrooxazol-2-yl)hexyl)amino)-6-methyl-6,11-dihydrodibenzo[c,f][1,2]thiazepine 5,5-dioxide] | < 10 µM |  |
| CN1c2ccccc2C(NCCCCCCC(N)=O)c2ccc(Cl)cc2S1(=O)=O (stereo not shown) [compound 52] | < 10 µM |  |
| COCCCCCNC1c2ccccc2N(C)S(=O)(=O)c2cc(Cl)ccc21 (stereo not shown) [compound 32, 3-Chloro-11-((5-methoxypentyl)amino)-6-methyl-6,11-dihydrodibenzo [c,f][1,2]thiazepine 5,5-dioxide] | 0.563 ± 0.247 µM |  |
| CCOC(CCCNC1c2ccccc2N(C)S(=O)(=O)c2cc(Cl)ccc21)OCC (stereo not shown) [compound 24, 3-Chloro-11-((4,4-diethoxybutyl)amino)-6-methyl-6,11-dihydrodibenzo[c,f][1,2]thiazepine 5,5-dioxide] | < 10 µM |  |
| CCOCCCNC1c2ccccc2N(C)S(=O)(=O)c2cc(I)ccc21 (stereo not shown) [compound 76, 11-((3-Ethoxypropyl)amino)-3-iodo-6-methyl-6,11-dihydrodibenzo [c,f][1,2]thiazepine 5,5-dioxide] | 0.145 µM |  |
| COCCCNC1c2ccccc2N(C)S(=O)(=O)c2cc([S+](C)[O-])ccc21 (mixture of isomers) [compound 55, 11-((3-Methoxypropyl)amino)-6-methyl-3-(methylsulfinyl)-6,11-dihydrodibenzo[c,f][1,2]thiazepine 5,5-dioxide] | < 20 µM |  |

| Molecule | EC50 | EC50 [1] |
| --- | --- | --- |
| COCCCNC1c2ccc(Cl)cc2S(=O)(=O)N(C)c2ccsc21 (stereo not shown) [compound 77, 7-Chloro-10-((3-methoxypropyl)amino)-4-methyl-4,10-dihydrobenzo[f]thieno[3,2-c][1,2]thiazepine 5,5-dioxide] | < 10 µM |  |
| COCCCNC1c2ccccc2S(=O)(=O)N(C)c2c(OC)cccc21 (stereo not shown) [compound 50] | < 20 µM |  |
| CSCCCNC1c2ccccc2N(C)S(=O)(=O)c2cc(Cl)ccc21 (stereo not shown) [compound 33, 3-Chloro-6-methyl-11-((3-(methylthio)propyl)amino)-6,11-dihydrodibenzo[c,f][1,2]thiazepine 5,5-dioxide] | < 10 µM |  |
| COCCCNC1c2ccccc2N(C)S(=O)(=O)c2cc(OC(C)=O)ccc21 (stereo not shown) [compound 59, 11-((3-Methoxypropyl)amino)-6-methyl-5,5-dioxido-6,11-dihydrodibenzo[c,f][1,2]thiazepin-3-yl acetate] | < 10 µM |  |
| COCCCNC1c2ccccc2N(C)S(=O)(=O)c2cc(OC)ccc21 (stereo not shown) [compound 27, 3-Methoxy-11-((3-methoxypropyl)amino)-6-methyl-6,11-dihydrodibenzo [c,f][1,2]thiazepine 5,5-dioxide] | < 10 µM |  |
| CCOC(=O)CCCCCCNC1c2ccccc2N(C)S(=O)(=O)c2cc(C)ccc21 (stereo not shown) [compound 14, Ethyl 7-((3,6-dimethyl-5,5-dioxido-6,11-dihydrodibenzo[c,f][1,2]thiazepin-11-yl)amino) heptanoate] | < 10 µM |  |
| COCCCNC1c2ccccc2N(C)S(=O)(=O)c2cc(Oc3ccccc3)ccc21 (stereo not shown) [compound 29, 11-((3-Methoxypropyl)amino)-6-methyl-3-phenoxy-6,11-dihydrodibenzo [c,f][1,2]thiazepine 5,5-dioxide] | < 10 µM |  |
| COCCCNC1c2ccccc2N(C)S(=O)(=O)c2cc(I)ccc21 (stereo not shown) [compound 48, 3-Iodo-11-((3-methoxypropyl)amino)-6-methyl-6,11-dihydrodibenzo [c,f][1,2]thiazepine 5,5-dioxide] | 0.0152 ± 0.0069 µM |  |
| CN1c2ccccc2C(NCCOCCO)c2ccc(Cl)cc2S1(=O)=O (stereo not shown) [compound 25, 3-Chloro-11-((2-(2-hydroxyethoxy)ethyl)amino)-6-methyl-6,11-dihydrodibenzo[c,f][1,2]thiazepine 5,5-dioxide] | 8.59 ± 0.5 µM |  |
| CCCCCCCNC1c2ccccc2N(C)S(=O)(=O)c2cc(Cl)ccc21 (stereo not shown) [compound 26, 3-Chloro-11-(heptylamino)-6-methyl-6,11-dihydrodibenzo [c,f][1,2]thiazepine 5,5-dioxide] | < 10 µM |  |
| CN1c2ccccc2C(NCCCCCCC(=O)NCCO)c2ccc(Cl)cc2S1(=O)=O (stereo not shown) [compound 57, 7-((3-Chloro-6-methyl-5,5-dioxido-6,11-dihydrodibenzo [c,f][1,2]thiazepin-11-yl)amino)-N-(2-hydroxyethyl) heptanamide] | < 10 µM |  |
| COCCCNC1c2ccccc2N(C)S(=O)(=O)c2ccccc21 (stereo not shown) [compound 10, 11-((3-Methoxypropyl)amino)-6-methyl-6,11-dihydrodibenzo[c,f][1,2]thiazepine 5,5-dioxide] | < 10 µM |  |
| COCCCNC1c2ccccc2N(C)S(=O)(=O)c2cc(OCc3ccccc3)ccc21 (stereo not shown) [compound 75, 3-(Benzyloxy)-11-((3-methoxypropyl)amino)-6-methyl-6,11-dihydrodibenzo[c,f][1,2]thiazepine 5,5-dioxide] |  | > 20 µM |
| COCCCNC1c2ccccc2N(C)S(=O)(=O)c2cc(C)ccc21 (stereo not shown) [compound 15, 11-((3-Methoxypropyl)amino)-3,6-dimethyl-6,11-dihydrodibenzo[c,f][1,2]thiazepine 5,5-dioxide] | < 10 µM |  |
| CN1c2ccccc2C(NCCCCCO)c2ccc(Cl)cc2S1(=O)=O (stereo not shown) [compound 30, 3-Chloro-11-((5-hydroxypentyl)amino)-6-methyl-6,11-dihydrodibenzo [c,f][1,2]thiazepine 5,5-dioxide] | > 50 µM |  |
| COCCCNC1c2ccccc2N(C)S(=O)(=O)c2cc(SC(C)C)ccc21 (stereo not shown) [compound 63, 3-(Isopropylthio)-11-((3-methoxypropyl)amino)-6-methyl-6,11-dihydrodibenzo[c,f][1,2]thiazepine 5,5-dioxide] | < 10 µM |  |
| 7-((3-Iodo-6-methyl-5,5-dioxido-6,11-dihydrodibenzo [c,f][1,2]thiazepin-11-yl)amino)heptanoic acid hydrochloride salt [compound 84] |  | 0.04 µM |

Reference: patent US10183919B2 (priority 2014, dated 2019)
